Data set [1] is described as follows: Solubility of Compound (I) at low pH. Format: physicochemical.
A short description of data set [2]: Site specific gastrointestinal dosing (oral gavage, intraduodenal, intrajejunal) in rats, plasma AUC. The format is in vivo, Wister-Hans rats. Conditions: for AUC: Wister-Hans, rat, plasma. How it is done: Compound (I) was dosed in 10 mg/mL aqueous citrate solution at 20 mg/kg to Wister-Hans rats. Free base of Compound (I) was dissolved in aqueous solution of citric acid (containing 0.5 equivalents of anhydrous citiric acid) . The experiment was repeated 3 times each with 2 separate arms, and one oral (PO) gavage arm was included in each study. Intra-jejunal (IJ) and intra-duodenal (ID) dosing was done in cannulated rats. In the first study, there was about 40-fold increase in the AUC for the IJ-dosed group compared to the PO group, and the major metabolite, present in the PO arm was reduced by 20 fold in the IJ-group.

Data set [3] has as its system intestinal tissue (stomach, duodenum, jejunum, ileum, colon). Description: In vitro permeation in Ussing chambers through different intestinal regions of rat. The format is in vitro ADME, Sprague-Drawley rats. Conditions: 100 uM, mucosal to serosal, distal regions compared to stomach or duodenum, FIG. 7. As for the experimental part: Reagents: 10× Krebs-Ringer buffer (KRB) comprised of 1.26M NaCl (Promega, Madison, Wis.), 25mM KCl, 250 mM NaHCO3, 12 mM NaH2PO4, 12 mM MgCl2, 25 mM CaCl2 and 18 g/L D-Glucose (all from Sigma Aldrich, St. Louis, Mo.) prepared and stored individually to prevent crystallization. Dilute to 1× working concentration prior to use and pH adjusted with either carbogen perfusion for 20 mins to pH 7.4 (oxygenated KRB) or 1M HCl (Alfar Aesar, Ward Hill, Mass.) to pH 3.5, 6.5 or 7.4. 0.1% Phenol red, Antipyrine and Atenolol were purchased from Sigma Aldrich, St. Louis, Mo.
Harvest and preparation of intestinal tissue: 4 to 9 month old adult female virgin Sprague-Drawley rats (Harlan Laboratories, Livermore, Calif.) were acclimated in-house for a minimum of 3 days prior to experimentation. Adolescent and geriatric animals should be avoided to prevent age-related differences in gastro-intestinal morphology and function. Animals were housed under IACUC-approved husbandry protocols including 12-hour light and 12-hour dark cycles, and allowed standard chow and water ad libitum. Tissue harvest should be performed one animal at a time to maintain tissue viability. […]

Data set [4] can be described thus: Solubility of the salt in water at ambient temperature. The format is physicochemical. As for the experimental part:
To the solution of (R)-2-[3-[4-amino-3-(2-fluoro-4-phenoxy-phenyl)pyrazolo[3,4-d]pyrimidin-1-yl]piperidine-1-carbonyl]-4-methyl-4-[4-(oxetan-3-yl)piperazin-1-yl]pent-2-enenitrile (having about 9/1 E/Z ratio) (4.2 g) in EtOAc (60 mL, 15 vol) was added sulfuric acid (0.31 g, 0.17 mL, 0.5 eq) in EtOAc (20 mL, 5 vol) at ambient temperature. The suspension was stirred at ambient temperature for ˜2 hr and then 40° C. for 4 hr and then at ambient temperature for at least 1 hr. After filtration and drying at ambient temperature under vacuum, 1.5 g of white powder was obtained. Solubility of the hemi-sulfate at ambient temperature was >100 mg/mL in water.

Where two headings read alike, the source gives them in different places. Bounds are passed on as bounds.

With `CC(C)(C=C(C#N)C(=O)N1CCCC(n2nc(-c3ccc(Oc4ccccc4)cc3F)c3c(N)ncnc32)C1)N1CCN(C2COC2)CC1` [Compound (I), (R)-2-[3-[4-amino-3-(2-fluoro-4-phenoxy-phenyl)pyrazolo[3,4-d]pyrimidin-1-yl]piperidine-1-carbonyl]-4-methyl-4-[4-(oxetan-3-yl)piperazin-1-yl]pent-2-enenitrile], the “solubility at low pH” value in data set [1] is “greater than 10 % (w/v)”. The “increase in AUC, ID compared to oral gavage” value in data set [2] (ID vs PO) is given as “approximately 2 fold”. In addition, the “metabolic stability by site of administration” value in data set [2] (IJ dosing compared to oral gavage) is on record as “more metabolically stable”. The AUC was 1.78 µg·h/mL in data set [2] (20 mg/kg, intraduodenum cannula, 20 mg/kg, aqueous citrate solution, read-out: AUC, intraduodenal (ID) dosing); 14.4 µg·h/mL in data set [2] (other: intrajejunal, 20 mg/kg, intrajejunum cannula, 20 mg/kg, aqueous citrate solution, read-out: AUC, intrajejunal (IJ) dosing); 0.668 to 1.64 µg·h/mL in data set [2] (po, 20 mg/kg, oral (PO) gavage, 20 mg/kg, 10 mg/mL aqueous citrate solution, read-out: AUC, oral gavage). In addition, in data set [2] (intrajejunum cannula, 20 mg/kg, aqueous citrate solution), the “AUC, intrajejunal (IJ) dosing” value is on record as 26,800 ng*hr/ml. In data set [2] (oral (PO) gavage, 20 mg/kg, 10 mg/mL aqueous citrate solution), the “AUC, oral gavage” value was found to be 0.994 µg·h/mL. Moreover, the “permeability (Papp) by region of the GI tract” value in data set [3] is “statistically increased permeabilities”.

Take `CC(C)(C=C(C#N)C(=O)N1CCC[C@@H](n2nc(-c3ccc(Oc4ccccc4)cc3F)c3c(N)ncnc32)C1)N1CCN(C2COC2)CC1` [hemi-sulfate, (R)-2-[3-[4-amino-3-(2-fluoro-4-phenoxy-phenyl)pyrazolo[3,4-d]pyrimidin-1-yl]piperidine-1-carbonyl]-4-methyl-4-[4-(oxetan-3-yl)piperazin-1-yl]pent-2-enenitrile]: in data set [4], the solubility is greater than 100 mg/mL.

What is called solubility is the concentration that dissolves in the medium under given conditions. Usually AUC stands for the area under the concentration-time curve, a measure of exposure.
